Assay results published in patent publication US20210300900A1, “OGA INHIBITOR COMPOUNDS” (Janssen Pharmaceutica NV, priority 2018, published 2021).
Where a name gives a salt, the structure may show the parent alone.

Experiments:
[1] = target: T1, recombinant human Meningioma Expressed Antigen 5 (MGEA5), also referred to as O-GcNAcase (OGA) (Homo sapiens, UniProt O60502); assay: OGA biochemical assay (inhibition of FM-GlcNAc hydrolysis, fluorescence); settings: FM-GlcNAc substrate; for Emax: read-out: Enzymatic Emax (%); for IC50: read-out: Enzymatic hOGA, pIC50 (converted)
T1 construct: Full length OGA enzyme was purchased at OnGene (cat #TP322411); purchased OnGene (so in the source)
T1 sequence (O60502 1-916): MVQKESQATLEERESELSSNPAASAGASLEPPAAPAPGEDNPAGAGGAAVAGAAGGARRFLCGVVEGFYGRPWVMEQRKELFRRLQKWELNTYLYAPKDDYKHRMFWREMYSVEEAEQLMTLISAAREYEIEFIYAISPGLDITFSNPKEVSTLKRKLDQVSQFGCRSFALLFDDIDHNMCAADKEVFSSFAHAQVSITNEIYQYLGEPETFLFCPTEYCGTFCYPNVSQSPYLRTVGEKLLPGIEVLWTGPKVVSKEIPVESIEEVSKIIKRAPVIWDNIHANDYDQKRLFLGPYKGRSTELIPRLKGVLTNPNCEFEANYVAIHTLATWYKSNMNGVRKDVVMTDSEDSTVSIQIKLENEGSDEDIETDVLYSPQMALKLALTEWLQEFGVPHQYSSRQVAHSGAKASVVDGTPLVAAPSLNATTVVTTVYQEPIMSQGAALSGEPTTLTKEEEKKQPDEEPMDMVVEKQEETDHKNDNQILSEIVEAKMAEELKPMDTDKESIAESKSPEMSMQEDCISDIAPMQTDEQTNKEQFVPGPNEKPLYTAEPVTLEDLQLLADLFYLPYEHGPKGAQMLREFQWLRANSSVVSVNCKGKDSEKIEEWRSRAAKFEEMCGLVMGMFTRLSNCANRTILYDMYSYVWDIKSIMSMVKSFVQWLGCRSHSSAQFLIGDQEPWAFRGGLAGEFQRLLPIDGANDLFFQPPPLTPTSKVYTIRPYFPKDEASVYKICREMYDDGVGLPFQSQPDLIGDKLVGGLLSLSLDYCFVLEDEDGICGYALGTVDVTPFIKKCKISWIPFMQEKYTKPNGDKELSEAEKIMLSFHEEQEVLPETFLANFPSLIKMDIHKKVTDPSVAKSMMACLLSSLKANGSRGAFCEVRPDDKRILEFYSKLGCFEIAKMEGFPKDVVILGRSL
In short: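 Full-length recombinant human OGA (2 nM) pre-incubated 60 min with compound, then FM-GlcNAc (100 uM final) added in 200 mM citrate/phosphate pH 7.2 with 0.005% Tween-20; 6 h at room temperature, stopped with pH 11.0 carbonate. Fluorescein read at ex 485/em 538 nm; IC50 and Hill coefficient from curve fit against no-inhibitor and saturating-standard controls.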

OGA = target: T2, OGA (Homo sapiens, UniProt O60502); assay: OGA cellular assay (ICC detection of O-GlcNAcylated proteins in HEK293 cells inducible for P301L mutant human Tau); type: cell-based; settings: 6 hours incubation; for Emax: HEK293, HEK293 cells inducible for P301L mutant human Tau, maximum = Thiamet G 200 uM; for EC50: HEK293 cells inducible for P301L mutant human Tau, read-out: Cellular hOGA, pEC50 (converted)
T2 construct: endogenous in cells; host or cells: HEK293 cells inducible for P301L mutant human Tau (isoform 2N4R)
T2 sequence (O60502 1-916): T1 sequence (O60502 1-916)
Procedure: HEK293 cells inducible for P301L mutant human Tau (isoform 2N4R) were established at Janssen. Thiamet-G was used for both plate validation (high control) and as reference compound (reference EC50 assay validation). OGA inhibition is evaluated through the immunocytochemical (ICC) detection of O-GlcNAcylated proteins by the use of a monoclonal antibody (CTD110.6; Cell Signaling, #9875) detecting O-GlcNAcylated residues as previously described (Dorfmueller et al. 2010 Chemistry & biology, 17:1250). Inhibition of OGA will result in an increase of O-GlcNAcylated protein levels resulting in an increased signal in the experiment. Cell nuclei are stained with Hoechst to give a cell culture quality control and a rough estimate of immediate compounds toxicity, if any. ICC pictures are imaged with a Perkin Elmer Opera Phenix plate microscope and quantified with the provided software Perkin Elmer Harmony 4.1.
Cells were propagated in DMEM high Glucose (Sigma, #D5796) following standard procedures. 2 days before the cell assay cells are split, counted and seeded in Poly-D-Lysine (PDL) coated 96-wells (Greiner, #655946) plate at a cell density of 12,000 cells per cm^2 (4,000 cells per well) in 100 μl of Assay Medium (Low Glucose medium is used to reduce basal levels of GlcNAcylation) (Park et al. 2014 The Journal of biological chemistry 289:13519). At the day of compound test medium from assay plates was removed and replenished with 90 μl of fresh Assay Medium. 10 μl of compounds at a 10 fold final concentration were added to the wells. Plates were centrifuged shortly before incubation in the cell incubator for 6 hours. DMSO concentration was set to 0.2%. Medium is discarded by applying vacuum. For staining of cells medium was removed and cells washed once with 100 μl D-PBS (Sigma, #D8537). From next step onwards unless other stated assay volume was always 50 μl and incubation was performed without agitation and at room temperature. Cells were fixed in 50 μl of a 4% paraformaldehyde (PFA, Alpha aesar, #043368) PBS solution for 15 minutes at room temperature. […] Before analysis samples were washed 2 times manually for 5 minutes in ICC base buffer.
Imaging is performed using Perkin Elmer Phenix Opera using a water 20×objective and recording 9 fields per well. Intensity readout at 488 nm is used as a measure of O-GlcNAcylation level of total proteins in wells. To assess potential toxicity of compounds nuclei were counted using the Hoechst staining. IC50-values are calculated using parametric non-linear regression model fitting. As a maximum inhibition Thiamet G at a 200 uM concentration is present on each plate. In addition, a concentration response of Thiamet G is calculated on each plate.

CC(=O)Nc1cc(C(C)N2CCC[C@H](Cc3cc(C)nc(C)c3)C2)cnc1C (mixture of isomers) (as salt: HCl) [Product 33]
melting point: 147.5 °C

CCC(=O)Nc1cncc(C(C)N2CCC[C@H](Cc3cc(C)nc(C)c3)C2)c1 (mixture of isomers) (as salt: HCl) [Product 38]
melting point: 188.1 °C

CNC(=O)c1cncc(C(C)N2CCC[C@H](Cc3cc(C)nc(C)c3)C2)c1 (mixture of isomers) (as salt: HCl) [Product 40]
melting point: 251.2 °C

COc1cncc(C(C)N2CCC[C@H](Cc3cc(C)nc(C)c3)C2)c1 (mixture of isomers) (as salt: HCl) [Product 43]
melting point: 161.4 °C

CCOc1cncc(C(C)N2CCC[C@H](Cc3cc(C)nc(C)c3)C2)c1 (mixture of isomers) (as salt: HCl) [Product 44]
melting point: 138 °C

COc1cc(NC[C@H]2CCCN(C(C)c3nc(OC)ccc3F)C2)cc(C)n1 (mixture of isomers) (as salt: HCl) [Product 90]
melting point: 151.3 °C

CCOc1cc(CN2CCC[C@H](Cc3cc(C)nc(C)c3)C2)n[nH]1 [Product 14]
Emax [1]: 81%
IC50 [1]: 2750 nM
melting point: 112.89 °C

CC(=O)Nc1cnc(C(C)N2CCC[C@H](Cc3cc(C)nc(C)c3)C2)cn1 (stereo partly shown) [Product 64]
Emax [1]: 95%
IC50 [1]: 692 nM
Emax (OGA): 26%
EC50 (OGA): > 1000 nM
melting point: 211.6 °C

CC(=O)Nc1cc(C(C)N2CCCC(c3cc(C)nc(C)c3)C2)n[nH]1 (stereo not shown) [Product 72]
Emax [1]: 97%
IC50 [1]: 457 nM
Emax (OGA): 31%
EC50 (OGA): > 1000 nM
melting point: 184.68 °C

CC(=O)Nc1cc(C(C)N2CCCC(CNc3cc(C)nc(C(F)(F)F)c3)C2)[nH]n1 (stereo not shown) [Product 91]
Emax [1]: 104%
IC50 [1]: 129 nM
melting point: 261.7 °C

CC(=O)Nc1ncc(CN2CCC[C@H](Cc3cc(C)nc(C)c3)C2)nc1C.Cl [Product 158]
Emax [1]: 13%
IC50 [1]: > 10000 nM
melting point: 158.1 °C
